Values quoted from earlier work in EP1935424A1, “PHARMACEUTICAL COMPOSITIONS COMPRISING COMBINED ANTIDIABETIC SUBSTANCES FOR USE IN DIABETES MELLITUS” (ESPINOZA ABDALA, Leopoldo de Jesús, priority 2005, dated 2007).
Read-outs that look alike come from different tables or passages of the source.

How the values were obtained:
[1] = for metabolized by: enzymes named; for bioavailability / tmax (plasma peak following administration): oral; for half-life (clearance half-life in plasma): parent compound; for eliminated by renal route without being metabolized: share of the administered dose as non-metabolized drug; for absorption: oral / gastrointestinal tract, in words
[2] = route of clearance, table Sulfonylureas: Pharmacokinetc Properties
[3] = table Sulfonylureas: Pharmacokinetc Properties, unit not given

| Clearance [1, 2] | Action duration [1, 3] | metabolized by [1] | tmax (plasma peak following administration) [1] | half-life (clearance half-life in plasma) [1] | binds to plasma proteins (plasma proteins) | Compound | other results |
| --- | --- | --- | --- | --- | --- | --- | --- |
| Hepatic | 2-4 |  |  |  |  | COc1ccc2c(c1)C(=O)N(CCc1ccc(S(=O)(=O)NC(=O)NC3CCCCC3)cc1)C(=O)C2(C)C [Gliquidone] |  |
|  |  | CYP3A4 and CYP2C9 | 2 h | 5 to 6 h | more than 99% | CCc1ccc(CCOc2ccc(CC3SC(=O)NC3=O)cc2)nc1 (centres unmarked) [Pioglitazone] | bioavailability [1]: ~80%; clearance half-life for the metabolites ([1]; three active metabolites): 16 to 24 h |
| Hepatic and renal | 24-72 |  |  | 24 to 48 h |  | CCCNC(=O)NS(=O)(=O)c1ccc(Cl)cc1 [Chlorpropamide] | eliminated by renal route without being metabolized [1]: about 20% |
|  |  |  |  |  |  | CN(C)C(=N)N=C(N)N [Metformin] | absorption is completed in ([1]; gastrointestinal tract): about 6 hours; excreted by renal route ([1]; of an oral dose in 12 hours): 90% |
| Hepatic and renal | 24 |  |  |  |  | CCC1=C(C)CN(C(=O)NCCc2ccc(S(=O)(=O)NC(=O)N[C@H]3CC[C@H](C)CC3)cc2)C1=O [Glimepiride] |  |
|  |  |  |  |  |  | C[C@H]1O[C@H](O[C@H]2[C@H](O)[C@@H](O)[C@@H](O[C@H]3[C@H](O)[C@@H](O)C(O)O[C@@H]3CO)O[C@@H]2CO)[C@H](O)[C@@H](O)[C@@H]1N[C@H]1C=C(CO)[C@@H](O)[C@H](O)[C@H]1O (some centres unmarked) [Acarbose] | absorbed orally ([1]; in vivo, po): < 2%; absorption [1]: poorly absorbed orally |
|  |  | cytochrome P450 isoenzymes 2C8 and 2C9 | 1 h | 3 to 4 h | 99.8% | CN(CCOc1ccc(CC2SC(=O)NC2=O)cc1)c1ccccn1 (centres unmarked) [Rosiglitazone] | eliminated in feces ([1]; in vivo): 23%; eliminated in urine ([1]; in vivo): 64%; bioavailability [1]: 99% |
|  |  |  |  |  |  | COc1ccc(Cl)cc1C(=O)NCCc1ccc(S(=O)(=O)NC(=O)NC2CCCCC2)cc1 [Glibenclamide] | Action duration ([1]; in vivo): 12-16; Clearance ([1]; in vivo): Hepatic |
| Hepatic | 12-13 |  |  |  |  | Cc1ccc(S(=O)(=O)NC(=O)NN2CC3CCCC3C2)cc1 (centres unmarked) [Glicazide] |  |
|  |  | cytochrome P450 and by glucuronidases | 1 h | about 1 hours | more than 98% | CCOc1cc(CC(=O)N[C@@H](CC(C)C)c2ccccc2N2CCCCC2)ccc1C(=O)O [Repaglinide] | eliminated, time following administration ([1]; in vivo): 4 to 6 h; absorption [1]: rapidly absorbed; insulinotropic response to a meal occurs after taking an oral dose ([1]; patients with type 2 diabetes, oral dose): ≤ 30 min |
|  |  | CYP3A4 and CYP2C9 | 1 h | about 1.5 hours | 97% | CC(C)[C@H]1CC[C@H](C(=O)N[C@H](Cc2ccccc2)C(=O)O)CC1 [Nateglinide] | bioavailability [1]: greater than 70%; absorption [1]: rapidly absorbed; eliminated by renal route without being metabolized [1]: About 16% |
|  | 5-10 |  |  |  |  | Cc1cnc(C(=O)NCCc2ccc(S(=O)(=O)NC(=O)NC3CCCCC3)cc2)cn1 [Glipizide] |  |
